Here are results for 10 compounds from patent US20130253179A1, “Functionalization Processes and Reactants Used in Such Processes Using an Isatoic Anhydride or a Derivative Thereof, Biological Molecules Thus Treated and Kits” (priority 2010, published 2013).

Molecules are shown by their SMILES. ≈ marks a conversion by molar mass, not a printed value.

Series [1] concerns model oligoribonucleotide (ORN) with 27 bases. Put plainly: Functionalisation of a model ORN with 27 bases: functionalisation rate and regiospecificity by HPLC/LC-MS after nuclease P1/alkaline phosphatase hydrolysis. Conditions: compound 30 mM, 1 h at 65° C., 250 mM TEAAc pH 7, 25% DMSO; for Fr (corrected functionalisation rate): ORN 8 nmol. The series is classed as biochemical. The source says:
For this purpose, a fixed quantity of ORN is reacted with an isatoic anhydride derivative conjugated to a molecule of interest (Cy3 IA Me (13)), under various temperature conditions, duration conditions, reaction medium conditions, etc. HPLC monitoring of the reaction at 260 nm makes it possible to detect the disappearance of the peak corresponding to the initial ORN and the appearance of peaks corresponding to acylated ORN. These products have a greater retention time and have an absorption spectrum corresponding to both that of ORN and that of the fluorescent label.
However, for greater precision on the functionalisation site and to precisely evaluate the functionalisation rate (Fr), the ORN population (labelled and unlabelled) is separated from the excess label by precipitation with acetone/lithium perchlorate or by gel permeation (NAP 5™, GE Health Care. Then the ORNs thus obtained are submitted to hydrolysis with the nuclease P1 (Aldrich, Saint Louis, USA) and with the alkaline phosphatase (Aldrich, Saint Louis, USA), in order to hydrolyse the phosphate diester bonds of ORN.
The ORN functionalisation rate (Fr) is evaluated by measuring: • the area corresponding to the terminal mononucleoside adducts (functionalised at 2′ and at 3′) and the area corresponding to the acylated dinucleosides (functionalised internally on 2′OH) • compared to the area of the peaks corresponding to the four ribonucleosides.
The internal/external regiospecificity of the acylation is evaluated by measuring the relative proportion of the areas corresponding to the: • end mono-nucleotides acylated at 2′ and at 3′ • and di-nucleotides acylated internally on 2′OH • which are easily detectable by HPLC.
The mixture is incubated for 60 minutes at 65° C. in an oven on a rack which is temperature-balanced in advance. An HPLC injection (conditions 3) makes it possible to monitor a formation of a certain quantity of acylated ORN as described in FIG. 6. To eliminate the salts and the excess label, the mixture is then purified on Sephadex NAP 5 gel (GE Health Care, Uppsala, Sweden)) and/or triple precipitation in 1.2 mL of a 180 mM Acetone/LiClO4 75/25 mixture. To finish, the pellet is dried with acetone and is evaporated with the centrifugal evaporator (RCT 60, Jouan, St Herblain, France). The residue is then taken up in 33 μL of a H2O/DMSO 85/15 solution and an HPLC injection (conditions 3) is performed in order to verify the proper elimination of the label. There is added to the mixture 2 μL of nuclease P1 (ref.: N8630 Sigma-Aldrich, St Louis, USA) in 1 U/μl solution in its buffer: 20 mM sodium acetate pH 5.5; 1 mM ZnCl2; 50 mM NaCl and 1 μL of 7 u/μl alkaline phosphatase in water (Ref. P7923-2KU Sigma-Aldrich, St Louis, USA). The medium is left at ambient temperature for 4 to 6 hours. It is then injected into HPLC (conditions 3) in order to verify the total hydrolysis of the ORN and in order to analyse the nature of the fragments obtained in accordance with what was described above and as described in FIG. 6.
The functionalisation rate is evaluated with UV at 260 nm by integration of the clusters corresponding to the acylated dinucleotides and to the acylated nucleosides) relative to the clusters corresponding to the four ribonucleosides. The ratio of the population of acylated dinucleotides to the population of acylated nucleosides is evaluated in the same way in order to evaluate the percentage of functionalisation on the 3′ terminal end.
The functionalisation rate values, presented within the framework of this invention, take into account the correction factor which must be applied according to the molar extinction coefficient at 260 nm of each of the nucleosides and according to whether they are nucleosides or dinucleotides. […]

In another series the test system is ODN with 53 bases. Briefly: RNA vs DNA chemoselectivity: functionalisation of an ODN with 53 bases. The series is classed as biochemical. To be noted: compound 30 mM, DMSO/TEAAc buffer 25/75 (250 mM pH 7), 1 h at 65° C. On the procedure: After precipitation with acetone and hydrolysis with nuclease P1 and alkaline phosphatase, the hydrolysed fragments are analysed by LC-MS, as described in example 3. An example of the chromatograms monitoring the reaction of ODN or ORN with compound 13 is shown in FIG. 9, in which graphs A, B and C respectively represent ORN, ORN functionalised with compound 13 and precipitated, and ORN functionalised with 13, precipitated and hydrolysed. Graphs D, E and F represent the same thing, but with ODN.

The next series has as its system in vitro RNA transcripts. Briefly: Detection on Affymetrix DNA chip of biotinylated in vitro RNA transcripts. Set-up: species or system human. Conditions: 30 mM compound, 60 mins at 65° C.; background in the order of 30 RFU. How it is done: The in vitro transcripts are generated by in vitro transcription of the total RNA extracted from blood samples with the aid of the MessageAmp II kit (Reference AM 1751, AMBION, Austin, Tex.). Briefly, after extraction of the total RNA from the blood cells, a first reverse transcription step by the enzyme […] is performed in order to generate the DNA strand complementary to the mRNA (cDNA). The RNA strand is then digested by the RNase H before forming the double strand of cDNA by means of a DNA polymerase. Finally, the antisense RNA (in vitro transcripts) is obtained from the cDNA using the transcriptase T7.
17.6 μL of previously obtained solution of in vitro RNA transcripts (568 ng/μl), 9.4 μL of ultrapure water and 3 μL of 100 mM Zn(OAc)2 pH 6.5 is mixed. This solution is then incubated for 15 mins at 70° C., and then placed immediately into ice.
30 μL of this solution is sampled, to which there is added 30 μL of a potassium phosphate solution (pH 7, 1M), 30 μL of ultrapure water and 30 μl of the compound SBiot IA Me (9) in a 120 mM solution in DMSO. […]
The excess reagent is then removed in the same way as in example 7 by precipitation with isopropanol. As well as depositing on an Affymetrix chip GeneChip Human Genome U133 Plus 2.0 Array, ref 900470, Affymetrix, St Clara, USA), the detection and measurement of the fluorescence.

The nature of the next series: physchem. Conditions: water.

Turning to `O=C(CCCCC1SCC2NC(=O)NC21)Nc1ccc2[nH]c(=O)oc(=O)c2c1` (stereo not shown) [5Biot IA 5, 5-biotin-isatoic anhydride], in series [1], the “Fr (corrected functionalisation rate)” value came out at 1.2%. This compound also gave a solubility in the series “Solubility in water” of 1 mM (≈ 0.404 mg/mL).

`Cn1c(=O)oc(=O)c2cc(NC(=O)CCCCC3SCC4NC(=O)NC43)ccc21` (stereo not shown) [5Biot IA Me 9, 1-Methyl-5 biotin-isatoic anhydride]: in series [1], the “Fr (corrected functionalisation rate)” value is recorded as 2.6% and the “External/internal regiospecificity (uncorrected ratio of areas acylated mononucleosides / acylated dinucleotides)” value was 55/45. In addition, the “corrected functionalisation rate of the ODN” value in the series on ODN with 53 bases is 0.1%. Also, in the series with in vitro RNA transcripts, the “fluorescence intensities compared with background noise of unfunctionalised target IVTs” value is given as “very substantially greater than the background noise”.

On to `O=C(CCCCC1SCC2NC(=O)NC21)Nc1ccc2c(c1)c(=O)oc(=O)n2CCCS(=O)(=O)O` (stereo not shown) [5Biot IA SO3^− 10, 1-propylsulfone-5-biotin-isatoic anhydride], for which, in series [1], the “Fr (corrected functionalisation rate)” value is 1.6% and the “External/internal regiospecificity (uncorrected ratio of areas acylated mononucleosides / acylated dinucleotides)” value is given as 60/40.

`O=C(CCCCC1SCC2NC(=O)NC21)NCCOCCOCCOCCOCCC(=O)Nc1ccc2[nH]c(=O)oc(=O)c2c1` (stereo not shown) [5Biot PEG4 IA 6, 5-biotin-hexyl ethylene glycol-isatoic anhydride]: in series [1], the “Fr (corrected functionalisation rate)” value was 3.3% and the “External/internal regiospecificity (uncorrected ratio of areas acylated mononucleosides / acylated dinucleotides)” value was 62/38. The same compound came in with a solubility in “Solubility in water” of 19 mM (≈ 12.4 mg/mL).

Consider `Cn1c(=O)oc(=O)c2cc(NC(=O)CCOCCOCCOCCOCCNC(=O)CCCCC3SCC4NC(=O)NC43)ccc21` (stereo not shown) [5Biot PEG4 IA Me 11, 1-methyl-5-biotin-hexyl ethylene glycol-isatoic anhydride], for which, in series [1], the “Fr (corrected functionalisation rate)” value was 4% and the “External/internal regiospecificity (uncorrected ratio of areas acylated mononucleosides / acylated dinucleotides)” value is recorded as 60/40. For the same compound, in the series “Solubility in water”, the concentration in solution (solubility) came to 50 mM (≈ 33.3 mg/mL).

In the case of `O=C(CCCCC1SCC2NC(=O)NC21)NCCOCCOCCOCCOCCC(=O)NCCSSCCC(=O)Nc1ccc2[nH]c(=O)oc(=O)c2c1` (stereo not shown) [5Biot PEG4 SS IA 23], in series [1], the “Fr (corrected functionalisation rate)” value was determined as 3.1% and the “External/internal regiospecificity (uncorrected ratio of areas acylated mononucleosides / acylated dinucleotides)” value is listed as 52/48.

As for `CCN1/C(=C\C=C\C2=[N+](CCCCCC(=O)Nc3ccc4[nH]c(=O)oc(=O)c4c3)c3ccc(S(=O)(=O)[O-])cc3C2(C)C)C(C)(C)c2cc(S(=O)(=O)O)ccc21` [Cy3 IA 7, 5-Cy3 isatoic anhydride], in series [1], the “Fr (corrected functionalisation rate)” value is 2.6% and the “External/internal regiospecificity (uncorrected ratio of areas acylated mononucleosides / acylated dinucleotides)” value was 61/39. In addition, the solubility in “physchem” is more than 100 mM.

Turning to `CC(=O)Nc1ccc2c(c1)c(=O)oc(=O)n2CC(=O)NCCOCCOCCNC(=O)CCCCC1SCC2NC(=O)NC21` (stereo not shown) [N(Biot PEG2) acetamido IA 19, 1-biotin-diethyleneglycol-5-acetamido-isatoic anhydride], in series [1], the “Fr (corrected functionalisation rate)” value turned out to be 1.2% and the “External/internal regiospecificity (uncorrected ratio of areas acylated mononucleosides / acylated dinucleotides)” value was 50/50.

With `O=C(CCCCC1SCC2NC(=O)NC21)NCCOCCOCCNC(=O)Cn1c(=O)oc(=O)c2ccccc21` (stereo not shown) [N(Biot PEG2)IA 18, 1-biotin-ethylene glycol-isatoic anhydride], in series [1], the “Fr (corrected functionalisation rate)” value came to 3.4% and the “External/internal regiospecificity (uncorrected ratio of areas acylated mononucleosides / acylated dinucleotides)” value was 56/44.

As to `O=C(CCCCCn1c(=O)oc(=O)c2ccccc21)NCCCOCCOCCOCCCNC(=O)CCCCC1SCC2NC(=O)NC21` (stereo not shown) [N(Biot PEG4) IA 21, N-(N-(biotin-dPEG3-propyl)-6-bromohexanamide) isatoic anhydride], in series [1], the “Fr (corrected functionalisation rate)” value is listed as 0.7% and the “External/internal regiospecificity (uncorrected ratio of areas acylated mononucleosides / acylated dinucleotides)” value was 49/51.

Usually solubility stands for the concentration that dissolves in the medium under given conditions. Read a low solubility as little dissolved substance.
